Laboratory results reported in PubChem BioAssay (NCI).
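Values below derive from 48-hour exposures of cells grown in 96-well plates, with endpoints linearly interpolated between the two concentrations bracketing the appropriate inhibition level. TGI: total growth inhibition.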

Assays:
Experiment in all cases: DTP human tumour cell line panel, 48 h
[1] = system: NCI-H226 lung
[2] = system: HCC-2998 colon
[3] = system: SW-620 colon
[4] = system: SK-MEL-2 melanoma
[5] = system: SF-295 CNS
[6] = system: SF-268 CNS
[7] = system: HT29 colon
[8] = system: MDA-MB-435
[9] = system: M14 melanoma
[10] = system: SR leukemia
[11] = system: SK-MEL-28 melanoma
[12] = system: NCI/ADR-RES ovarian
[13] = system: K-562 leukemia
[14] = system: OVCAR-8 ovarian
[15] = system: NCI-H23 lung
[16] = system: MDA-N
[17] = system: ACHN renal
[18] = system: LOX IMVI melanoma
[19] = system: NCI-H460 lung
[20] = system: RPMI-8226 leukemia
[21] = system: U251 CNS
[22] = system: OVCAR-5 ovarian
[23] = system: CAKI-1 renal
[24] = system: SN12C renal
[25] = system: EKVX NSCLC
[26] = system: HCT-15 colon
[27] = system: KM12 colon
[28] = system: HL-60(TB) leukemia
[29] = system: A498 renal
[30] = system: SF-539 CNS
[31] = system: IGROV1 ovarian
[32] = system: DU-145 prostate
[33] = system: T-47D breast
[34] = system: HCT-116 colon
[35] = system: MALME-3M melanoma
[36] = system: OVCAR-3 ovarian
[37] = system: HOP-92 NSCLC
[38] = system: A549 NSCLC
[39] = system: MDA-MB-231 breast
[40] = system: RXF 393 renal
[41] = system: TK-10 renal
[42] = system: HOP-62 NSCLC
[43] = system: SNB-75 CNS
[44] = system: MOLT-4 leukemia
[45] = system: PC-3 prostate
[46] = system: 786-0 renal
[47] = system: SK-OV-3 ovarian
[48] = system: COLO 205 colon
[49] = system: OVCAR-4 ovarian
[50] = system: UO-31 renal
[51] = system: CCRF-CEM leukemia
[52] = system: HS 578T breast
[53] = system: UACC-257 melanoma
[54] = system: SNB-19 CNS
[55] = system: NCI-H522 lung
[56] = system: SK-MEL-5 melanoma
[57] = system: UACC-62 melanoma

## CCCCCCCCCc1cc(=O)c2c(O)cc(O)cc2o1
[1]
  TGI: 36 µM
[2]
  TGI: 35.8 µM
[3]
  TGI: 78.1 µM
[4]
  TGI: 34.3 µM
[5]
  TGI: 36 µM
[6]
  TGI: 14.5 µM
[7]
  TGI: 34.4 µM
[8]
  TGI: 41.1 µM
[9]
  TGI: 34.9 µM
[10]
  TGI: 32.7 µM
[11]
  TGI: 52.2 µM
[12]
  TGI: 35.7 µM
[13]
  TGI: 26 µM
[14]
  TGI: 40.2 µM
[15]
  TGI: 34.2 µM
[16]
  TGI: > 100 µM
[17]
  TGI: 34.5 µM
[18]
  TGI: 44.7 µM
[19]
  TGI: 50.6 µM
[20]
  TGI: 22.3 µM
[21]
  TGI: 77.2 µM
[22]
  TGI: 32 µM
[23]
  TGI: > 100 µM
[24]
  TGI: 38.9 µM
[25]
  TGI: 37.5 µM
[26]
  TGI: 36 µM
[27]
  TGI: 21.3 µM
[28]
  TGI: 32.3 µM
[29]
  TGI: 35.2 µM
[30]
  TGI: 34.4 µM
[31]
  TGI: 32.4 µM
[32]
  TGI: 36.7 µM
[33]
  TGI: 51.1 µM
[34]
  TGI: 47.6 µM
[35]
  TGI: 32 µM
[36]
  TGI: 30.4 µM
[37]
  TGI: 33.7 µM
[38]
  TGI: 35.5 µM
[39]
  TGI: > 100 µM
[40]
  TGI: 31.3 µM
[41]
  TGI: 34.5 µM
[42]
  TGI: 28.5 µM
[43]
  TGI: 33.2 µM
[44]
  TGI: 22.3 µM
[45]
  TGI: 32.1 µM
[46]
  TGI: 42.8 µM
[47]
  TGI: 32.2 µM
[48]
  TGI: 54.2 µM
[49]
  TGI: 40.9 µM
[50]
  TGI: 32.6 µM
[51]
  TGI: 44.7 µM
[52]
  TGI: 40.6 µM
[53]
  TGI: 35.5 µM
[54]
  TGI: 34.7 µM
[55]
  TGI: 31.5 µM
[56]
  TGI: 37.6 µM

## CN(C)c1cccc2c(S(=O)(=O)NCCCNCCN)cccc12
[1]
  TGI: > 100 µM
[2]
  TGI: 62.8 µM
[3]
  TGI: > 100 µM
[4]
  TGI: 86.7 µM
[5]
  TGI: > 100 µM
[6]
  TGI: > 100 µM
[7]
  TGI: > 100 µM
[8]
  TGI: 65.8 µM
[9]
  TGI: 33.9 µM
[10]
  TGI: 39.1 µM
[11]
  TGI: > 100 µM
[12]
  TGI: > 100 µM
[13]
  TGI: 43.1 µM
[15]
  TGI: > 100 µM
[16]
  TGI: 69.6 µM
[17]
  TGI: > 100 µM
[57]
  TGI: > 100 µM
[18]
  TGI: > 100 µM
[19]
  TGI: > 100 µM
[21]
  TGI: > 100 µM
[22]
  TGI: > 100 µM
[23]
  TGI: > 100 µM
[24]
  TGI: > 100 µM
[25]
  TGI: > 100 µM
[26]
  TGI: > 100 µM
[27]
  TGI: > 100 µM
[28]
  TGI: 43.8 µM
[29]
  TGI: 91 µM
[30]
  TGI: 49.7 µM
[31]
  TGI: > 100 µM
[32]
  TGI: > 100 µM
[33]
  TGI: > 100 µM
[34]
  TGI: > 100 µM
[35]
  TGI: > 100 µM
[36]
  TGI: > 100 µM
[37]
  TGI: 80.4 µM
[38]
  TGI: > 100 µM
[39]
  TGI: > 100 µM
[40]
  TGI: 75 µM
[42]
  TGI: > 100 µM
[43]
  TGI: 68.6 µM
[44]
  TGI: 41.1 µM
[45]
  TGI: > 100 µM
[46]
  TGI: > 100 µM
[47]
  TGI: > 100 µM
[48]
  TGI: 32.8 µM
[49]
  TGI: > 100 µM
[50]
  TGI: > 100 µM
[51]
  TGI: 46 µM
[52]
  TGI: 76.4 µM
[53]
  TGI: > 100 µM
[54]
  TGI: > 100 µM
[55]
  TGI: > 100 µM
[56]
  TGI: 35.7 µM
